# Data taken from patent US20020192194A1, “Production and use of dopaminergic cells to treat dopaminergic deficiencies” (priority 2000, published 2002).
# Experiments:
# [1] = system: hNT neurons; test: TH expression of hNT neurons treated with lithium chloride (TH immunoreactivity counts); type: cell-based, human; settings: 1.0 mM, 5-day cultures
# Method: A small-scale dose range study analyzed whether therapeutic (0.5-1.0 mM) and clinically toxic (2.0-6.0 mM) concentrations of LiCl enhanced TH expression in cells treated for 6 weeks with retinoic acid and then LiCl. The control and lithium-treated cultures (0.5, 1.0 and 3.0 mM) were scored for TH immunoreactivity, which was expressed as the number of TH-positive (TH+) cells/well. For TH immunohistochemistry the cells were rinsed in 0.1 M phosphate buffered saline (PBS), fixed in 4% paraformaldehyde, and then again rinsed in PBS. […] To determine the percentage of cells labeled by a particular antibody in representative experiments, the numbers of labeled and unlabeled cells were assessed in a blind-coded manner using a 20X objective and a photographic frame. […]
# To investigate the effect of various doses of LiCl on tyrosine hydroxylase expression in 5 DIV hNT neurons, we determined the number of unlabeled and TH+ neurons in a blind coded manner using a 20X objective and a photographic frame (field=0.3 mm^2). […] The dose responsive tests were analyzed using a one-way analysis of variance (ANOVA) followed by post hoc comparisons using Bonferroni-Dunn analysis.
# [2] = system: hNT neurons; test: Soma size and neurite outgrowth of TH+ hNT cells (image analysis); type: cell-based, human; settings: 5 days in culture
# Method: The same series of slides immunostained for TH were employed to measure the soma size (μm^2) and neurite outgrowth (μm) of appropriately 50 TH+ cells per representative culture experiment using a computerized image analysis program (Image-Pro Plus, Media Cybernetics, Inc., Silver Springs, Md.) at 20X objective. The results in the morphological assessment study are reported as mean ±SEM and were analyzed using Student's t-test.
Structure (SMILES),numbers of TH+ hNT cells vs control [1],neurite outgrowth vs control [2],soma size vs control [2]
[Cl-].[K+] [KCl],not significantly different,did not significantly differ from control values,not significantly different from control
[Cl-].[Na+] [NaCl],not significantly different,did not significantly differ from control values,not significantly different from control
